In ChEMBL document CHEMBL1150433, “Synthesis and activity of conformationally-constrained macrocyclic norstatine-based inhibitors of HIV protease” (Bioorg Med Chem Lett, 1996):

Key:
[1] = test system: MT2; assay: Antiviral activity against […] RF infected MT-2 cells; format: functional, cell-based; settings: Homo sapiens
[2] = target: Human immunodeficiency virus type 1 protease (Human immunodeficiency virus 1, UniProt Q72874); assay: Compound was evaluated for the inhibition of HIV protease

SMILES	EC50 [1] [µM]	IC50 [2] [µM]
CC(C)(C)NC(=O)[C@@H]1CCCN1C(=O)[C@@H](O)[C@@H]1Cc2ccc(cc2)OCCCOc2cc3ccccc3cc2C(=O)N[C@@H](CC(N)=O)C(=O)N1	0.076	0.019
CC(C)(C)OC(=O)[C@@H]1CCCN1C[C@@H](O)[C@H](Cc1ccccc1)NC(=O)[C@H](CC(N)=O)NC(=O)c1ccc2ccccc2n1		0.023
CC(C)(C)NC(=O)[C@@H]1CCCN1C(=O)[C@H](O)[C@@H]1Cc2ccc(cc2)OCCCOc2cc3ccccc3cc2C(=O)N[C@@H](CC(N)=O)C(=O)N1		3.8
